{"source": "patent US20060205949A1", "about": "“Crystalline forms of a biphenyl compound” (THERAVANCE, INC., priority 2005, published 2006)", "tested_on": "ACh-induced bronchoconstriction", "test": "Duration of bronchoprotection in guinea pig model of acetylcholine-induced bronchoconstriction", "format": "in vivo", "conditions": "inhalation, 1.5 hours post-dose, expected", "procedure": "Groups of six male guinea pigs (Duncan-Hartley (HsdPoc:DH) Harlan, Madison, Wis.) weighing between 250 and 350 g are individually identified by cage cards. Throughout the study animals are allowed access to food and water ad libitum.\nTest compounds are administered via inhalation over 10 minutes in a whole-body exposure dosing chamber (R&S Molds, San Carlos, Calif.). The dosing chambers are arranged so that an aerosol was simultaneously delivered to 6 individual chambers from a central manifold. Guinea pigs are exposed to an aerosol of a test compound or vehicle (WFI). […] This is measured gravimetrically by comparing pre-and post-nebulization weights of the filled nebulizer.\nThe bronchoprotective effects of test compounds administered via inhalation are evaluated using whole body plethysmography at 1.5, 24, 48 and 72 hours post-dose.\nForty-five minutes prior to the start of the pulmonary evaluation, each guinea pig is anesthetized with an intramuscular injection of ketamine (43.75 mg/kg), xylazine (3.50 mg/kg) and acepromazine (1.05 mg/kg). […] The depth of anesthesia is monitored and adjusted if the animal responds to pinching of its paw or if the respiration rate is greater than 100 breaths/minute. […]\nStarting this program initiates the experimental protocol and data collection. […] By integrating this signal over time, a measurement of […] is calculated for each breath. […]"}
{"smiles": "O=C(CCN1CCC(OC(=O)Nc2ccccc2-c2ccccc2)CC1)NCCCCCNCc1ccc(O)cc1", "note": "[compound of formula I, biphenyl-2-ylcarbamic acid 1-{2-[5-(4-hydroxybenzylamino)pentylcarbamoyl]ethyl}piperidin-4-yl ester]", "values": [{"measurement": "PD2(50) for ACh-induced bronchoconstriction", "result": "less than 200 μg/mL"}]}
